Series [1] has as its system sodium-dependent transporters NaPi-IIa (SLC34A1) and NaPi-IIc (SLC34A3). The series is described as follows: Sodium-dependent phosphate uptake (32PO4). The format is cell-based, human. How it is done: Phosphate uptake was performed in confluent monolayers using 32PO4 (Perkin Elmer, Waltham Mass., USA) as described earlier. Cells cultured for 10 days at 37° C. were incubated with 0.2 mM KH2PO4 (10 μCi/ml) for 5 min in four independent experiments, in the presence of 137 mM sodium or 137 mM NMDG to study sodium-dependent transport. Additionally, time- (0.5; 1; 2; 5; 10; 15; 30 or 60 min) and concentration-dependent (0.02; 0.07; 0.22; 0.66 or 2 mM PO4) uptake was studied. Data are expressed as mean+/−SE.
(§1) Michaelis-Menten curve fitting for calculation of Km and Vmax values was performed by non-linear regression analysis using GraphPad Prism 4.03 software. Differences in substrate transport in presence or absence of inhibitors or unlabelled analogues were assessed by a paired t-test.

The subject of series [2] is opossum kidney (OK) cells. The settings on record: reference [20], read-out: Km of apical phosphate transport; cited from earlier work.
In series [3] the target is T1, OCT2/SLC22A2 (Homo sapiens, UniProt O15244).
T1 construct: investigated in ciPTEC-14.4 by measuring the activity and expression of the solute carrier tansporter (SLC) OCT2/SLC22A2; endogenous in cells; host or cells: ciPTEC-14.4 grown on Transwell filters
T1 sequence (O15244 1-555): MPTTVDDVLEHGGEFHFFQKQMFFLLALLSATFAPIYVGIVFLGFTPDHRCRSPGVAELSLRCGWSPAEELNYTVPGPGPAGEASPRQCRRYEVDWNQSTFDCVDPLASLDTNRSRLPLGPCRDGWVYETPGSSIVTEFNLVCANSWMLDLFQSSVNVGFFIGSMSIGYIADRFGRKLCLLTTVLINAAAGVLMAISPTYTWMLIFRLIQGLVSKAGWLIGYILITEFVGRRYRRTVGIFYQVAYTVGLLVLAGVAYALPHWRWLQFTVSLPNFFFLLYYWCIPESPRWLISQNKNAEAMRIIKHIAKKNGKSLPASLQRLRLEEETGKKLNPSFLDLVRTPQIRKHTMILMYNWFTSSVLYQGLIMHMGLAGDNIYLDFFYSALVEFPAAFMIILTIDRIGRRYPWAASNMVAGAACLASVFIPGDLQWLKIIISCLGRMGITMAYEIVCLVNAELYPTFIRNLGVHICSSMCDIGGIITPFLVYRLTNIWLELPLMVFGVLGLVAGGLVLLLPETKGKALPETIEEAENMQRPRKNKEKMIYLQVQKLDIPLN
The series is described as follows: OCT2/SLC22A2 activity (basolateral ASP uptake). In kind it is cell-based. How it is done:
Transport of xenobiotics across the basolateral membrane was investigated in ciPTEC-14.4 by measuring the activity and expression of the solute carrier tansporter (SLC) OCT2/SLC22A2 using a method adapted from Brown et al. Cells were grown on Transwell®-Clear polyester membranes as described before. Activity of OCT2 was measured by incubating 1 μM fluorescent OCT2 substrate 4-(4-(dimethylamino)styryl)-N-methylpyridinium iodide (ASP, Invitrogen) in Hepes-Tris buffer for 1 min at 37° C. at the basal compartment. To inhibit OCT2 mediated uptake, cells were exposed to 100 μM tetrapentylammonium (TPA) at both apical and basal compartments for 10 min prior to uptake of ASP. Additionally, one set of experiments was performed at 4° C. After incubation, transport was arrested using 1 mM ice-cold TPA. Cells were homogenized using 250 μl Hepes-Tris-Triton (0.1%) buffer for 30 min, followed by analyzing fluorescence intensity (excitation 450 nm, emission 642 nm) using Victor3 Multiplate Reader (Perkin Elmer Inc.). Data are expressed as mean+i-SE.

Series [4] concerns OK cells. The settings on record: reference [12]; cited from earlier work.
Series [5] concerns ciPTEC-14.4. The series is described as follows: Albumin uptake by endocytosis (BSA-FITC uptake). In kind it is cell-based, human. How it is done: The ability of ciPTEC-14.4 to reabsorb albumin was investigated by the incubation of confluent monolayers in 24 well plates with 50 μg/ml BSA-FITC (Sigma-Aldrich) for 30 min at 37° C. unless described otherwise. Uptake was arrested using ice-cold PBS and cells were detached using trypsin, fixed by paraformaldehyde (0.5%) in PBS and analyzed using flow cytometry or immuno-fluorescence microscopy. Concentration- and temperature-dependent uptake, was investigated using a concentration range BSA-FITC (0; 3.7; 11; 33; 100; 300 μg/ml) at 37° C. and on ice for 30 min. Uptake inhibition was studied in three independent experiments by incubating the cells with BSA-FITC (50 μg/ml) in addition of excess unlabelled BSA (10 mg/ml) or recombinant RAP (1 μM), which was a kind gift of Dr. M. Nielsen (University of Aarhus, Denmark). Uptake inhibition by RAP was further examined using a dilution range of RAP. BSA uptake in saturation experiments are plotted as mean fluorescence intensity and in inhibition experiments as mean (+/−SE) percentage uptake compared to control condition.
as §1

As for `O=P([O-])(O)O.[K+]` [phosphate, KH2PO4], the “decrease of phosphate uptake in the absence of sodium” value in series [1] (0.2 mM Pi, 5 min, NMDG as sodium replacement, p<0.001) is given as “approximately 86%”. Besides, the Km was 120 µM in series [1] (ciPTEC-14.4, read-out: apparent Km of sodium-dependent phosphate uptake) and 370 µM in series [2].

For the molecule `CCCCC[N+](CCCCC)(CCCCC)CCCCC` [TPA, tetrapentylammonium], the inhibition at 1 min, 100 μM in series [3] (100 μM TPA, 1 μM ASP, 1 min 37° C., basal compartment, p<0.05, read-out: inhibition of ASP transport) was determined as 36%.

As for `CN(C)c1ccc(/C=C/c2cc[n+](C)cc2)cc1` [ASP, 4-(4-(dimethyl-amino)styryl)-N-methylpyridinium iodide], in series [3], the inhibition at 1 min, 1 μM is 30%.

Regarding albumin, the “apparent Km of albumin uptake” value in series [4] was 20 µg/mL.

“unlabelled FITC: excess unlabelled bovine serum albumin used as competitor of BSA-FITC uptake”: the “inhibition of BSA-FITC uptake” value in series [5] (200-fold excess unlabelled (10 mg/ml), BSA-FITC 50 μg/ml, p<0.01) is recorded as 54%.

Turning to “BSA-FITC: FITC labelled bovine serum albumin”, the “apparent Km of BSA-FITC uptake” value in series [5] (ciPTEC-14.4, passage 20-25, 30 min, 37° C.) is 126 µg/mL.

B1: RAP: recombinant receptor associated protein, known inhibitor of albumin endocytosis by binding to multi-ligand receptor megalin (protein, UniProt P30533 35-357, looked up)
Alpha-2-macroglobulin …: YSREKNQPKPSPKRESGEEFRMEKLNQLWEKAQRLHLPPVRLAELHADLKIQERDELAWKKLKLDGLDEDGEKEARLIRNLNVILAKYGLDGKKDARQVTSNSLSGTQEDGLDDPRLEKLWHKAKTSGKFSGEELDKLWREFLHHKEKVHEYNVLLETLSRTEEIHENVISPSDLSDIKGSVLHSRHTELKEKLRSINQGLDRLRRVSHQGYSTEAEFEEPRVIDLWDLAQSANLTDKELEAFREELKHFEAKIEKHNHYQKQLEIAHEKLRHAESVGDGERVSRSREKHALLEGRTKELGYTVKKHLQDLSGRISRARHNEL
Take B1: the “inhibition of BSA-FITC uptake” value in series [5] (1 μM RAP, BSA-FITC 50 μg/ml, 30 min 37° C., p<0.05) amounted to 41%. For the same molecule, the “inhibition of BSA-FITC uptake, dilution range of RAP” value in series [5] (BSA-FITC 50 μg/ml) was “inhibited the uptake of BSA-FITC in a concentration-dependent manner”.

In general, Km refers to the substrate concentration at which the rate is half of its maximum. As a reminder, the inhibition is the share of the control response that was lost under treatment.

Values taken from US20130130223A1, “NOVEL CONDITIONALLY IMMORTALIZED HUMAN PROXIMAL TUBULE CELL LINE EXPRESSING FUNCTIONAL INFLUX AND EFFLUX TRANSPORTERS” (priority 2009, published 2013).
